“And” between values parts separate entries of the source, which are not always exact repeats. Identical values can stand only once. Like-named read-outs stand apart in the source and are kept apart here. Marks after values point to notes of the source that are not given here.
Tests used:
[1] = Quenching of the ABTS radical cation; details: Table 5; 6-min reaction, initial OD 1.000
iron [2] = test: Iron clearance in the iron-overloaded Cebus apella monkey; type: in vivo; details: 300 μmol/kg sc, as sodium salt
Description: The monkeys were iron overloaded with intravenous iron dextran to provide about 500 mg iron per kg body weight. The serum transferrin iron saturation rose to between 70 and 80%. At least twenty half-lives, sixty days, elapsed before any of the animals were used in experiments evaluating iron-chelating agents.
Fecal and urine samples were collected at 24 hour intervals and processed. Briefly, the collections began 4 days prior to the administration of the test drug and continued for an additional 5 days after the drug was given. Iron concentrations were determined by flame atomic absorption spectroscopy.
(§1) The iron chelators were solubilized in 40% Cremophor RH-40/water (v/v) and given orally and subcutaneously to the rats at the doses shown in Table 4. In the primates, DFO was dissolved in sterile H2O at a concentration of 50 or 100 mg/mL and given orally or subcutaneously at a volume of 1 ml/kg. The desferrithiocin analogues were solubilized in 40% Cremophor RH-40/water (v/v) and given orally to the monkeys at the doses shown in Table 4. However, the desferrithiocin analogues were administered subcutaneously as either a suspension in distilled H2O or as their sodium salts in solution as indicated in Table 4.
(§2) Iron clearance studies were carried out both in the non iron-overloaded, bile duct-cannulated rodent model and in the iron-overloaded Cebus apella monkey, and the results are reported as iron clearing efficiency (Table 4). This number is generated by dividing the net iron clearance [total iron excretion (bile or stool plus urine) minus background] by the theoretical iron clearance and multiplying by 100. The theoretical iron clearance is based on a 2:1 metal complex stoichiometry for 4′-(HO)-DADMDFT, a 1:1 stoichiometry for DFO, and a 1:1 stoichiometry for BDU, as shown in the Job's plot (FIG. 5). Data are presented as the mean±the standard error of the mean. The drugs were administered both orally (po) and subcutaneously (sc) to the rodents and primates; the positive control was DFO.

iron [3] = test: Iron clearance in the non iron-overloaded, bile duct-cannulated rodent model; type: in vivo, Sprague-Dawley rats
Description: Briefly, male Sprague-Dawley rats averaging 450 g were housed in Nalgene plastic metabolic cages during the experimental period and given free access to water. The animals were anesthetized using sodium pentobarbital (55 mg/kg) administered intraperitoneally. The bile duct was cannulated using 22-gauge polyethylene tubing. The cannula was inserted into the duct about 1 cm from the duodenum and tied snugly in place. After threading through the shoulder, the cannula was passed from the rat to the swivel inside a metal torque-transmitting tether, which was attached to a rodent jacket around the animal's chest. The cannula was directed from the rat to a Gilson microfraction collector (Middleton, Wis.) by a fluid swivel mounted above the metabolic cage. Bile samples were collected at 3 hour intervals for 24 hours. The urine sample was taken at 24 hours and handling was as previously described. (Bergeron, R. J., et al., J. Med. Chem. 34:2072-2078 (1991).
as §1, §2

iron [4] = details: cited from earlier work

| Structure (SMILES) | Slope × 10^3 OD units/μM (ABTS radical cation quenching) [1] | % stool (of iron excreted), monkeys (iron [2]) [%] | % urine (of iron excreted), monkeys (iron [2]) [%] | efficiency in monkeys (%) (iron [2]) | % bile (of iron excreted), rodents (iron [3]; 300 μmol/kg po) [%] | % urine (of iron excreted), rodents (iron [3]; 300 μmol/kg po) [%] | efficiency in rodents (%) (iron [3]; 300 μmol/kg po) | % bile (of iron excreted), rodents (iron [3]; 300 μmol/kg sc) [%] | % urine (of iron excreted), rodents (iron [3]; 300 μmol/kg sc) [%] | efficiency in rodents (%) (iron [3]; 300 μmol/kg sc) | % bile (of iron excreted), rodents (iron [4]; 150 μmol/kg po, n = 3) [%] | % urine (of iron excreted), rodents (iron [4]; 150 μmol/kg po, n = 3) [%] | efficiency in rodents (%) (iron [4]; 150 μmol/kg po, n = 3) | % bile (of iron excreted), rodents (iron [4]; 150 μmol/kg sc, n = 6) [%] | % urine (of iron excreted), rodents (iron [4]; 150 μmol/kg sc, n = 6) [%] | efficiency in rodents (%) (iron [4]; 150 μmol/kg sc, n = 6) |
| --- | --- | --- | --- | --- | --- | --- | --- | --- | --- | --- | --- | --- | --- | --- | --- | --- |
| O=C(O)[C@H]1CSC(c2ccc(O)cc2O)=N1 [4′-(HO)-DADMDFT, 4′-hydroxydesazadesmethyldesferrithiocin] | −102 × 10^3 OD units/μM | 75 | 25 | 5.3±1.7% and 5.3 ± 1.7^g % | 100 | 0 | 2.9±2.8 | 90 | 10 | 2.1±0.9 | – | – | – | – | – | – |
| CC(=O)N(O)CCCCCNC(=O)CCC(=O)N(O)CCCCCNC(=O)CCC(=O)N(O)CCCCCN [DFO, Desferrioxamine B, reference compound] | – | – | – | – | – | – | – | – | – | – | 87 | 13 | 1.1 ± 0.6^c % | 75 | 25 | 2.8 ± 0.7 |
